Reference: patent US9867790B2, “Compositions and methods using cuminaldehyde” (NESTEC S.A., priority 2013, dated 2018)
Where two headings read alike, the source gives them in different places.

Assays:
[1] = system: mice; assay: body weight gain in mice with chronic ingestion (FIG. 3); assay type: in vivo; settings: mice chronically fed high fat diet containing 0.2 wt %, vs same diet without
[2] = system: TRPA1; settings: read-out: EC50 of TRPA1 activation; cited from earlier work
[3] = system: mice; assay: gastric emptying after a single ingestion in mice (FIG. 6); assay type: in vivo; settings: vs sham gavage
[4] = target: T1, TRPV1 (Homo sapiens, UniProt Q8NER1); settings: cited from earlier work
T1 construct: expressed in transfected cells

[5] = system: mice; assay: short term food intake after a single ingestion in mice (FIG. 5); assay type: in vivo; settings: vs sham gavage
[6] = system: mice; assay: insulin sensitivity in mice with chronic ingestion (FIG. 4); assay type: in vivo; settings: mice chronically fed high fat diet containing 0.2 wt %, vs same diet without
[7] = target: T1, TRPV1; assay: desensitization of TRPV1 by pretreatment before capsaicin (FIGS. 8A, 8B); assay type: cell-based; settings: applied to cells fifteen minutes before capsaicin
Method: (§1) Specifically, cuminaldehyde was applied to cells fifteen minutes before cinnamaldehyde, icilin and capsaicin, which are specific agonists for TRPA1, TRPM8 and TRPV1 cation channels, respectively. After specific agonist application, the cation channel expression was measured. […] The left bars in each graph represent the controls lacking cuminaldehyde pretreatment, the right bars in each graph represent the samples including cuminaldehyde pretreatment.

[8] = target: T2, TRPM8 (Homo sapiens, UniProt Q7Z2W7); assay: desensitization of TRPM8 by pretreatment before icilin (FIGS. 8A, 8B); assay type: cell-based; set-up: host or cells: cells, not specified; settings: applied to cells fifteen minutes before icilin
Method: as §1

[9] = target: T2, TRPM8; assay: in vitro activation of hTRPM8 in cells (FIG. 7); assay type: cell-based; set-up: expressed in transfected cells; settings: FIG. 7, squares
[10] = target: T3, TRPA1 (Homo sapiens, UniProt O75762); assay: desensitization of TRPA1 by pretreatment before cinnamaldehyde (FIGS. 8A, 8B); assay type: cell-based; settings: applied to cells fifteen minutes before cinnamaldehyde
T3 construct: expressed in transfected cells
Method: as §1

[11] = target: T3, TRPA1; assay: in vitro activation of TRPA1 in cells (FIG. 7); assay type: cell-based
[12] = system: "empty" cells; assay: in vitro activation of "empty" cells (FIG. 7); assay type: cell-based
[13] = target: T1, TRPV1; assay: in vitro activation of TRPV1 in cells (FIG. 7); assay type: cell-based; settings: FIG. 7, triangles

T1 sequence (Q8NER1 whole entry, species assumed): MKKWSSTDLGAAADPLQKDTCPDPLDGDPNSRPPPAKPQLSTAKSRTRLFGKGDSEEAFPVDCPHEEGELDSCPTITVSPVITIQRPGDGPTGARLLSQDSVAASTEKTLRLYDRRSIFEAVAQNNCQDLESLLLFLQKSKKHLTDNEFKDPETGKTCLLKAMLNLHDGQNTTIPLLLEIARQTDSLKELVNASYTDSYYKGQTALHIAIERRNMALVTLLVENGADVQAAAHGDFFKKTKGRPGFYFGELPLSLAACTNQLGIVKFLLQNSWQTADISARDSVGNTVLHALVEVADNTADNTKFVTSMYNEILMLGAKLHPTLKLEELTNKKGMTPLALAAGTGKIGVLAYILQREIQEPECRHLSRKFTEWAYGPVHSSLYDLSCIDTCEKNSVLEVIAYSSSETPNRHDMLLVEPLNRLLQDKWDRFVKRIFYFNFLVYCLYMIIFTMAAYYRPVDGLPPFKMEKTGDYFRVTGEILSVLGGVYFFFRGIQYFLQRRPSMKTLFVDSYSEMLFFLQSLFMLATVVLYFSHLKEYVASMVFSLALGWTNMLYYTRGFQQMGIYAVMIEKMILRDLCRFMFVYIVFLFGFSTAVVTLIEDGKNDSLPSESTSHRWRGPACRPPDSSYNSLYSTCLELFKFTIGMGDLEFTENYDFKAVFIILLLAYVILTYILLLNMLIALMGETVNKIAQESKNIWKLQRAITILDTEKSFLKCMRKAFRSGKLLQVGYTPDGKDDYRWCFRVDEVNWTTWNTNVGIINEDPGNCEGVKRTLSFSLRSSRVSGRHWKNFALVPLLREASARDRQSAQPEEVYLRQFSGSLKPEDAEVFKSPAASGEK
T3 sequence (O75762 whole entry, species assumed): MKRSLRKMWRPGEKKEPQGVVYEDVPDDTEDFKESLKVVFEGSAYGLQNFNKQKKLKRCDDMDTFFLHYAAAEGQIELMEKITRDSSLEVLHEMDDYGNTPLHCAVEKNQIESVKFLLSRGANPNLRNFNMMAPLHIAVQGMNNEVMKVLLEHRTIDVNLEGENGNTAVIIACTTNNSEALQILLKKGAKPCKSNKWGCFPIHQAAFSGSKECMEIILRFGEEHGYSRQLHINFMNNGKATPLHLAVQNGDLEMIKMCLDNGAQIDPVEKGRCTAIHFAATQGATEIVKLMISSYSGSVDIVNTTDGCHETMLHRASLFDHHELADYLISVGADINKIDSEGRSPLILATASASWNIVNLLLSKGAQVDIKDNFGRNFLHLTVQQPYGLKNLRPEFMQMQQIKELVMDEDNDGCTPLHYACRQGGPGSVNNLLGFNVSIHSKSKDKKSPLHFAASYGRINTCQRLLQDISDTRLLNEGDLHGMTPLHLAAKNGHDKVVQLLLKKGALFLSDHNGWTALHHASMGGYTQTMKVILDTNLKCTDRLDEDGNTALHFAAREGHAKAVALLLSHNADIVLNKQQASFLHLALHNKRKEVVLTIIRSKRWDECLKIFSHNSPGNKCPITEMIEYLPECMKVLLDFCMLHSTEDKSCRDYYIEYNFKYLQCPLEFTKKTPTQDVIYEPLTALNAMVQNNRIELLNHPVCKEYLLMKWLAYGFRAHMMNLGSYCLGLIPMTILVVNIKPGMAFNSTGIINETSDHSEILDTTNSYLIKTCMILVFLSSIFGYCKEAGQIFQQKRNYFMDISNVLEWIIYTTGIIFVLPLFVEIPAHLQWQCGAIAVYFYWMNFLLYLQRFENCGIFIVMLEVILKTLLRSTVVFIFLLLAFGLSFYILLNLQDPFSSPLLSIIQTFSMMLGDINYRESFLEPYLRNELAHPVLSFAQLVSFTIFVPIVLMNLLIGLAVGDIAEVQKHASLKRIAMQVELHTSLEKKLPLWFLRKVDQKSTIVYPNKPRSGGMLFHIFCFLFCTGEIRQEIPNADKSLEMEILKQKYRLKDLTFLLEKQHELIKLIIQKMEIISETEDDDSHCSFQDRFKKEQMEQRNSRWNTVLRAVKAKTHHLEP
T2 sequence (Q7Z2W7 whole entry): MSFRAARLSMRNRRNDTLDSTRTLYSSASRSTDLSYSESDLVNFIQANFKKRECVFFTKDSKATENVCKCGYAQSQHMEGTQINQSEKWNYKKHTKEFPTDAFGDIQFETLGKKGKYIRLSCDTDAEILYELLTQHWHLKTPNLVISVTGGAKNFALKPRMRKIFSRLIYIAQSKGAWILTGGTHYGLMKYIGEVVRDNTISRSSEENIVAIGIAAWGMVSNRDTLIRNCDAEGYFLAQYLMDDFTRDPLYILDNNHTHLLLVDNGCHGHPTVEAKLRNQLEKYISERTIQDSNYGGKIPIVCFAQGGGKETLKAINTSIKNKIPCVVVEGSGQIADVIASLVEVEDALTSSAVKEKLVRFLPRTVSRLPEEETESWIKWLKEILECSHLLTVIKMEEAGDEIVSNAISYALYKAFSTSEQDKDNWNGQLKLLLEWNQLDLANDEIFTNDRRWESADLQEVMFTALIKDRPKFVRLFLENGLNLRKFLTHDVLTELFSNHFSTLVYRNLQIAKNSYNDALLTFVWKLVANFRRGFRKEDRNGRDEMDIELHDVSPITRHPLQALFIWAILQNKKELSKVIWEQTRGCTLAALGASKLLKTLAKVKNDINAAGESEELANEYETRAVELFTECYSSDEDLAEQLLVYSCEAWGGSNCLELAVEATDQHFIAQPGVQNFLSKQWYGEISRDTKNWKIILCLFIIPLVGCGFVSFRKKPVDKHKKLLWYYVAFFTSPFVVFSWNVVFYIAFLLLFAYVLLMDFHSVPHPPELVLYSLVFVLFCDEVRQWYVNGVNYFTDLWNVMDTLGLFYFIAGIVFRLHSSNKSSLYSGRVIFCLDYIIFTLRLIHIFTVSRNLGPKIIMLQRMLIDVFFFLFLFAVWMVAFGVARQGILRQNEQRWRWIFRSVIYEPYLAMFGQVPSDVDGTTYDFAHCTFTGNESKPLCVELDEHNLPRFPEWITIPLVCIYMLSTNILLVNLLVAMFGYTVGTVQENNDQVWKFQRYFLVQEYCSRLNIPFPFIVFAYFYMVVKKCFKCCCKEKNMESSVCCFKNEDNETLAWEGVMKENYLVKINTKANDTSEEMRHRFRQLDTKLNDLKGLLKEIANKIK

| Compound | body weight gain [1] | EC50 [2] [µM] | gastric emptying [3] | activation of TRPV1 [4] | short term food intake [5] | insulin sensitivity [6] | desensitization of TRPV1 [7] | desensitization of TRPM8 [8] | activation of hTRPM8 [9] | desensitization of TRPA1 [10] | activation of TRPA1 ([11]; FIG. 7, diamonds) | efficacy of TRPA1 activation relative to cinnamaldehyde ([11]; relative to known TRPA1 agonist cinnamaldehyde) [%] | activation of "empty" cells [12] | activation of TRPV1 [13] |
| --- | --- | --- | --- | --- | --- | --- | --- | --- | --- | --- | --- | --- | --- | --- |
| O=CC=Cc1ccccc1 [cinnamaldehyde] | gained less weight | ~60 | delayed gastric emptying | not | reduction in short term food intake | improved insulin sensitivity |  |  |  |  |  |  |  |  |
| CC(C)c1ccc(C=O)cc1 [cuminaldehyde] |  |  |  |  |  |  | does not desensitize | does not desensitize | no activation was observed | does not desensitize | activated TRPA1 (diamonds) in a dose-dependent fashion | 140 | no activation was observed | no activation was observed |
